{
  "source": "paper PMC13226201",
  "about": "(Frontiers in Pharmacology, 2026)",
  "target": "human VMAT2 (Homo sapiens, UniProt Q05940)",
  "sequence (Q05940 whole entry)": "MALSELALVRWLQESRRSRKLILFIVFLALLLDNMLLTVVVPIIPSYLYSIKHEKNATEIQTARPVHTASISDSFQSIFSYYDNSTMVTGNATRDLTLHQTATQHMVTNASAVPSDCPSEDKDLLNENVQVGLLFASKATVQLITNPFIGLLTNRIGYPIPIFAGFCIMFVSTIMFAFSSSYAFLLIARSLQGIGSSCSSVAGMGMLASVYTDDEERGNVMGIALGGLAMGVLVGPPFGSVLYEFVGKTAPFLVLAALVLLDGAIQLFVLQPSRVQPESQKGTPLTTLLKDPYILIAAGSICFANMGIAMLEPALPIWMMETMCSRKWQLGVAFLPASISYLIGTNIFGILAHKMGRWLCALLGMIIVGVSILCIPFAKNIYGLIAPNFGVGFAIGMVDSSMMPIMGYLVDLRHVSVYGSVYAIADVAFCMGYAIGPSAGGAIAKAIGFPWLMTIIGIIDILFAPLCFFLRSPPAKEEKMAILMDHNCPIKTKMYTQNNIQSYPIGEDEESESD",
  "assay": "[3H]-α-DHTBZ radioligand binding in vesicles from human VMAT2-transfected HEK293 cells",
  "conditions": "read-out: IC50 [3H]-α-DHTBZ binding",
  "data": [
    {"smiles": "COc1cc2c(cc1OC)C1CC(=O)C(CC(C)C)CN1CC2", "note": "(stereo not shown) [TBZ, Tetrabenazine]", "values": [
      {"measurement": "IC50", "result": 19.2, "unit": "nM"}
    ]}
  ]
}
